Values quoted from earlier work, collected in US11826586B2, “Method for dyeing keratin material, comprising the use of an organic C1-C6-alkoxy-silane and an alkalising agent” (Henkel AG & Co. KGaA, priority 2019, dated 2023).

Conditions: 25° C.

solubility in water	solubility in water (in words)	SMILES
more than 20 % by weight		CCN(Cc1cccc(S(=O)(=O)O)c1)c1ccc(C(=C2C=CC(=[N+](CC)Cc3cccc(S(=O)(=O)O)c3)C=C2)c2ccccc2S(=O)(=O)[O-])cc1 [Acid Blue 9]
above 40 g/L		O=[N+]([O-])c1cc([N+](=O)[O-])c2ccc(S(=O)(=O)O)cc2c1O [Acid Yellow 9, 8-hydroxy-5,7-dinitro-2-naphthalenesulfonic acid]
	highly soluble	O=C(O)C1=NN(c2ccc(S(=O)(=O)O)cc2)C(=O)C1N=Nc1ccc(S(=O)(=O)O)cc1 (stereo not shown) [Acid Yellow 23, 4,5-dihydro-5-oxo-1-(4-sulfophenyl)-4-((4-sulfophenyl)azo)-1H-pyrazole-3-carboxylic acid]

SMILES	solubility in water	solubility in water (in words)
O=S(=O)(O)c1ccc(N=Nc2c(O)ccc3ccccc23)cc1 [Acid Orange 7, 4-[(2-hydroxy-1-naphthyl)azo]benzene sulphonate]	more than 7 g/L	
